Assay [1] addresses Gastrin/cholecystokinin type B receptor (Cavia porcellus). Kind of assay: Tested for inhibition of [3H]pCCK-8 specific binding to cholecystokinin type B receptor in guinea pig brain cortex.
The target is the same in assay [2]. The assay is described as above. The source holds these as a separate data set.
For assay [3], the target named is Cholecystokinin receptor type A (Rattus norvegicus) (UniProt P30551). Kind of assay: Tested for binding affinity towards cholecystokinin type A receptor in rat pancreas by displacement of [3H]pCCK-8 radioligand. (In general: Displacement assays read how much labelled ligand stays bound in the presence of the test substance.)

SMILES strings stand for the structures.

Consider `CC(Cc1c[nH]c2ccccc12)(NC(=O)OC1[C@H]2C[C@@H]3C[C@@H](C[C@H]1C3)C2)C(=O)NCCc1cccc2ccccc12` (stereo partly drawn) [[2-(1H-Indol-3-yl)-1-methyl-1-(2-naphthalen-1-yl-ethylcarbamoyl)-ethyl]-carbamic acid adamantan-2-yl ester], for which the affinity in assay [1] corresponds to a Ki of 89 nM.
Regarding `CC(Cc1c[nH]c2ccccc12)(C(=O)OC1[C@H]2C[C@@H]3C[C@@H](C[C@H]1C3)C2)C(=O)N(CCc1ccc(Cl)cc1Cl)CC(=O)O` (stereo partly drawn) [N-Carboxymethyl-N-[2-(2,4-dichloro-phenyl)-ethyl]-2-(1H-indol-3-ylmethyl)-2-methyl-malonamic acid adamantan-2-yl ester], the Ki in assay [2] was 12 nM.
For the compound `CC(Cc1ccc2ccccc2c1)(NC(=O)OC1[C@H]2C[C@@H]3C[C@@H](C[C@H]1C3)C2)C(=O)N(CCc1ccccc1)CC(=O)O` (stereo partly drawn) [{[2-(Adamantan-2-yloxycarbonylamino)-2-methyl-3-naphthalen-2-yl-propionyl]-phenethyl-amino}-acetic acid], the inhibitory constant (Ki) in assay [3] was 3010 nM.
Regarding `CC(Cc1c[nH]c2ccccc12)(NC(=O)OC1[C@H]2C[C@@H]3C[C@@H](C[C@H]1C3)C2)C(=O)NCC(=O)O` (stereo partly drawn) [[2-(Adamantan-2-yloxycarbonylamino)-3-(1H-indol-3-yl)-2-methyl-propionylamino]-acetic acid], the Ki in assay [2] turned out to be 986 nM.
On the same count and under the same terms, to `COc1ccc(CCNC(=O)C(C)(Cc2c[nH]c3ccccc23)NC(=O)OC2[C@H]3C[C@@H]4C[C@@H](C[C@H]2C4)C3)cc1` (stereo partly drawn) [{2-(1H-Indol-3-yl)-1-[2-(4-methoxy-phenyl)-ethylcarbamoyl]-1-methyl-ethyl}-carbamic acid adamantan-2-yl ester] belongs 115 nM; to `CC(Cc1c[nH]c2ccccc12)(NC(=O)OC1[C@H]2C[C@@H]3C[C@@H](C[C@H]1C3)C2)C(=O)NCc1ccccc1` (stereo partly drawn) [[1-Benzylcarbamoyl-2-(1H-indol-3-yl)-1-methyl-ethyl]-carbamic acid adamantan-2-yl ester], 231 nM.
With `CC(Cc1c[nH]c2ccccc12)(NC(=O)OC1[C@H]2C[C@@H]3C[C@@H](C[C@H]1C3)C2)C(=O)NCCc1ccc([N+](=O)[O-])cc1` (stereo partly drawn) [{2-(1H-Indol-3-yl)-1-methyl-1-[2-(4-nitro-phenyl)-ethylcarbamoyl]-ethyl}-carbamic acid adamantan-2-yl ester], the affinity in assay [2], expressed as Ki, was 79 nM. Compared with the last compound, the Ki is about 2.9-fold lower.
On the same count and under the same terms, as for `CC(Cc1c[nH]c2ccccc12)(NC(=O)OC1[C@H]2C[C@@H]3C[C@@H](C[C@H]1C3)C2)C(=O)NCCc1ccc(Cl)cc1Cl` (stereo partly drawn) [[1-[2-(2,4-Dichloro-phenyl)-ethylcarbamoyl]-2-(1H-indol-3-yl)-1-methyl-ethyl]-carbamic acid adamantan-2-yl ester], the figure is 27 nM; as for `CCOC(=O)CN(CCc1ccccc1)C(=O)C(C)(Cc1c[nH]c2ccccc12)NC(=O)OC1[C@H]2C[C@@H]3C[C@@H](C[C@H]1C3)C2` (stereo partly drawn) [{[2-(Adamantan-2-yloxycarbonylamino)-3-(1H-indol-3-yl)-2-methyl-propionyl]-phenethyl-amino}-acetic acid ethyl ester], 543 nM.
On the same count and under the same terms, as for `CC(Cc1c[nH]c2ccccc12)(NC(=O)OC1[C@H]2C[C@@H]3C[C@@H](C[C@H]1C3)C2)C(=O)N(CCc1ccc(Cl)cc1Cl)CC(=O)O` (stereo partly drawn) [{[2-(Adamantan-2-yloxycarbonylamino)-3-(1H-indol-3-yl)-2-methyl-propionyl]-[2-(2,4-dichloro-phenyl)-ethyl]-amino}-acetic acid], the figure is 37 nM; as for `CC(Cc1cccc2ccccc12)(NC(=O)OC1[C@H]2C[C@@H]3C[C@@H](C[C@H]1C3)C2)C(=O)N(CCc1ccccc1)CC(=O)O` (stereo partly drawn) [{[2-(Adamantan-2-yloxycarbonylamino)-2-methyl-3-naphthalen-1-yl-propionyl]-phenethyl-amino}-acetic acid], 134 nM.
The same measure, in the same setting: to `CC(Cc1c[nH]c2ccccc12)(NC(=O)OC1[C@H]2C[C@@H]3C[C@@H](C[C@H]1C3)C2)C(=O)Nc1ccc2ccccc2c1` (stereo partly drawn) [[2-(1H-Indol-3-yl)-1-methyl-1-(naphthalen-2-ylcarbamoyl)-ethyl]-carbamic acid adamantan-2-yl ester] belongs 402 nM.
As to `CC(Cc1c[nH]c2ccccc12)(NC(=O)OC1[C@H]2C[C@@H]3C[C@@H](C[C@H]1C3)C2)C(=O)NCCc1ccc(Br)cc1` (stereo partly drawn) [[1-[2-(4-Bromo-phenyl)-ethylcarbamoyl]-2-(1H-indol-3-yl)-1-methyl-ethyl]-carbamic acid adamantan-2-yl ester], in assay [2], the Ki worked out at 51 nM.

Broadly, the Ki is the equilibrium dissociation constant of an inhibitor or competing ligand from its target. Read a high Ki as lower affinity.

The values are drawn from BindingDB's records for doi:10.1021/jm00072a005 (University of Paris, 1993).
